# Laboratory results published in patent US5741811A, “Polythiophene anti-tumor agents” (Purdue Research Foundation, priority 1996, dated 1998).
# Like-named read-outs stand apart in the source and are kept apart here.
# Columns and labels:
# Assay in all cases: NCI human tumor cell line panel growth inhibition
# Format in all cases: cell-based
# [1] = system: XP-498 CNS cancer cells; details: read-out: Log10 GI50 (converted)
# Experimental: (§1) The first screen measures the cytotoxicity against a panel of sixty different human tumor cell lines. This assay provides data regarding the general cytotoxicity of an individual compound.
# (§2) The length of a bar is indicative of differential cytotoxicity against a specific type of tumor cells or tumor panels.
# (§3) The antitumor cytotoxicity of the thiophene compounds tested in the first two in vitro assays was measured by a microculture assay using either 3-(4,5-dimethylthiazol-2-yl)-2,5-diphenyltetrazolium bromide (MTT) or sulforhodamine B (SRB). [M. R. Boyd in "Principles and Practices of Oncology," V. T. DeVita, Jr., S. Hellman and S. A. Rosenberg (Eds.), Vol. 3, PPO Updates, Number 10, 1989.] This assay has an advantage over in vivo assay in that results are obtained within a week as opposed to several months. The assay was carried out in 96-well microtiter plates. The MTT assay is based on the production of a dark blue formazan product by dehydrogenase in the mitochondria of live tumor cells after exposure to drug for 6 days [M. C. Alley, D. A. Scudiero, A. Monks, M. L. Hursey, M. J. Czerwinski, D. L. Fine, B. J. Abbott, J. G. Mayo, R. H. Shoemaker and M. R. Boyd, Cancer Res., 48, 589, 1988.] Thus, only live cells are stained and can be measured at 570 nm. The SRB assay is based on the binding of the anionic group to the basic amino acid residues of cellular proteins after exposure of tumor cells to drug for 2 days [P. Skehan, R. Storeng, D. Scudiero, A. Monks, J. McMahon, D. Vistica, J. T. Warren, H. Bohesch, S. Kenney and M. R. Boyd, J. Nat. Cancer Inst., 82, 1107, 1990.] Thus, the total protein (viability) can be measured at 564 nm.
# [2] = system: IGROV-1 ovarian cancer cells; details: for GI50: Homo sapiens, read-out: Log10 GI50 (converted)
# [3] = system: LXPL-529 lung cancer cells; details: for GI50: Homo sapiens, read-out: Log10 GI50 (converted)
# [4] = system: NCI-H226 lung cancer cells; details: for GI50: Homo sapiens, read-out: Log10 GI50 (converted)
# [5] = system: CAKI-1 renal cancer cells; details: for GI50: Homo sapiens
# [6] = system: RXF-631 renal cancer cells; details: Homo sapiens, read-out: Log10 GI50 (converted)
# [7] = system: TK-10 renal cancer cells; details: for GI50: Homo sapiens, read-out: Log10 GI50 (converted)
# [8] = system: UACC-257 melanoma cells; details: for GI50: Homo sapiens, read-out: Log10 GI50 (converted)
# [9] = system: A549/ATCC lung cancer cells; details: for GI50: Homo sapiens, read-out: Log10 GI50 (converted)
# [10] = system: OVCAR-8 ovarian cancer cells; details: for GI50: Homo sapiens, read-out: Log10 GI50 (converted)
# Experimental: as §1, §2, §3
# [11] = system: SW-620 colon cancer cells; details: for GI50: Homo sapiens, read-out: Log10 GI50 (converted)
# Experimental: as §1, §2, §3
# [12] = system: HCC-2998 colon cancer cells
# [13] = system: HT29 colon cancer cells; details: for GI50: Homo sapiens, HT-29, read-out: Log10 GI50 (converted)
# [14] = system: SNB-19 CNS cancer cells
# [15] = system: HCT-116 colon cancer cells; details: for GI50: Homo sapiens, read-out: Log10 GI50 (converted)
# [16] = system: HCT-15 colon cancer cells; details: for GI50: Homo sapiens, read-out: Log10 GI50 (converted)
# [17] = system: NCI-H322M lung cancer cells; details: for GI50: Homo sapiens, read-out: Log10 GI50 (converted)
# [18] = system: HOP-62 lung cancer cells
# [19] = system: DLD-1 colon cancer cells; details: for GI50: Homo sapiens, read-out: Log10 GI50 (converted)
# [20] = system: A-498 renal cancer cells
# [21] = system: KM20L2 colon cancer cells; details: for GI50: Homo sapiens, KM-20L2, read-out: Log10 GI50 (converted)
# [22] = system: NCI-H460 lung cancer cells; details: for GI50: Homo sapiens, read-out: Log10 GI50 (converted)
# [23] = system: OVCAR-3 ovarian cancer cells; details: for GI50: Homo sapiens
# [24] = system: COLO-205 colon cancer cells; details: COLO-205, colon cancer; for GI50: Homo sapiens, read-out: Log10 GI50 (converted)
# [25] = system: OVCAR-5 ovarian cancer cells; details: for GI50: Homo sapiens, read-out: Log10 GI50 (converted)
# [26] = system: HOP-18 lung cancer cells
# [27] = system: HOP-92 lung cancer cells
# Source text: (§4) The cytotoxic activity of the present polythiophene compounds have been measured utilizing three different assays or screens. The first screen measures the cytotoxicity against a panel of sixty different human tumor cell lines. This assay provides data regarding the general cytotoxicity of an individual compound. In particular this type of assay is useful in identifying compounds which have enhanced cytotoxic activity against slow growing tumors as compared to faster growing tumor cells such as leukemia tumor cell lines. The identification of such compounds is critical since previously identified antitumor agents have low cytotoxic activity against slower growing tumors. […] The specificity of a cytotoxic compound for tumor cell lines relative to normal cells is an important characteristic of an effective antitumor agent.
# as §2, §3
# [28] = system: KM12 colon cancer cells
# Source text: as §4, §2, §3
# [29] = system: OVCAR-4 ovarian cancer cells
# Source text: as §4, §2, §3
# [30] = system: SK-OV-3 ovarian cancer cells
# [31] = system: RXF-393 renal cancer cells; details: for GI50: Homo sapiens, read-out: Log10 GI50 (converted)
# [32] = system: UACC-62 melanoma cells
# [33] = system: SF-295 CNS cancer cells; details: read-out: Log10 GI50 (converted)
# [34] = system: NCI-H522 lung cancer cells; details: read-out: Log10 GI50 (converted)
# [35] = system: 786-0 renal cancer cells; details: read-out: Log10 GI50 (converted)
# [36] = system: SNB-75 CNS cancer cells; details: Homo sapiens, read-out: Log10 GI50 (converted)
# [37] = system: UO-31 renal cancer cells; details: read-out: Log10 GI50 (converted)
# [38] = system: U251 CNS cancer cells; details: Homo sapiens, U-251, read-out: Log10 GI50 (converted)
# [39] = system: MALME-3M melanoma cells; details: read-out: Log10 GI50 (converted)
# [40] = system: NCI-H23 lung cancer cells; details: read-out: Log10 GI50 (converted)
# [41] = system: SF-268 CNS cancer cells; details: read-out: Log10 GI50 (converted)
# [42] = system: M-14 melanoma cells; details: M14, read-out: Log10 GI50 (converted)
# [43] = system: EKVX lung cancer cells; details: read-out: Log10 GI50 (converted)
# [44] = system: SK-MEL-2 melanoma cells; details: read-out: Log10 GI50 (converted)
# [45] = system: SN12C renal cancer cells; details: read-out: Log10 GI50 (converted)
# [46] = system: SK-MEL-28 melanoma cells; details: read-out: Log10 GI50 (converted)
# Source text: as §4, §2, §3
# [47] = system: ACHN renal cancer cells; details: read-out: Log10 GI50 (converted)
# [48] = CAKI-1, renal cancer, read-out: Log10 GI50 (converted)
# [49] = Homo sapiens, read-out: Log10 GI50 (converted)
structure (smiles),measurement,setting,value
OCc1ccc(-c2ccc(-c3ccc(-c4cccs4)s3)s2)s1,GI50,[1],11 µM
same,GI50,[2],1.12 µM
same,GI50,[3],1.05 µM
same,GI50,[4],5.89 µM
same,GI50,[5]; [48],0.617 µM
same,GI50,[6],11 µM
same,GI50,[7],0.891 µM
same,GI50,[8],10.7 µM
OCc1ccc(-c2ccc(CO)s2)s1 [drawing 33],Log10 GI50,[9],-5.91 M
same,Log10 GI50,[10],-5.23 M
same,Log10 GI50,[11],-5.04 M
same,Log10 GI50,[12],-6.40 M
same,Log10 GI50,[2],-6.57 M
same,Log10 GI50,[13],-5.04 M
same,Log10 GI50,[14],-4.72 M
same,Log10 GI50,[15],-5.27 M
same,Log10 GI50,[16],-4.19 M
same,Log10 GI50,[17],-5.77 M
same,Log10 GI50,[18],-5.52 M
same,Log10 GI50,[19],-4.74 M
same,Log10 GI50,[3],-6.33 M
same,Log10 GI50,[20],-7.71 M
same,Log10 GI50,[21],-6.15 M
same,Log10 GI50,[4],-7.60 M
same,Log10 GI50,[22],-6.29 M
same,Log10 GI50,"[23]; OVCAR-3, ovarian cancer",-5.70 M
same,Log10 GI50,[24],-6.22 M
same,Log10 GI50,[25],-6.06 M
same,Log10 GI50,[26],-5.51 M
same,Log10 GI50,[27],-4.09 M
same,Log10 GI50,[28],-4.35 M
same,Log10 GI50,[29],-4.46 M
same,Log10 GI50,[30],-5.80 M
same,Log10 GI50,"[5]; CAKI-1, renal cancer",-6.63 M
same,Log10 GI50,[7],-6.29 M
same,Log10 GI50,[8],-6.00 M
same,Log10 GI50,[31],-7.05 M
same,Log10 GI50,[32],-6.36 M
OCc1ccc(-c2cccs2)s1,GI50,[33],38 µM
same,GI50,[34],95.5 µM
same,GI50,[9],8.91 µM
same,GI50,[10],52.5 µM
same,GI50,[11],4.68 µM
same,GI50,[1],3.72 µM
same,GI50,[13],8.51 µM
same,GI50,[15],4.57 µM
same,GI50,[16],35.5 µM
same,GI50,[17],30.2 µM
same,GI50,[18]; [49],9.77 µM
same,GI50,[19],0.316 µM
same,GI50,[35],32.4 µM
same,GI50,[3],0.288 µM
same,GI50,[36],0.389 µM
same,GI50,[21],1.58 µM
same,GI50,[4],0.316 µM
same,GI50,[22],1.35 µM
same,GI50,"[23]; OVCAR-3, read-out: Log10 GI50 (converted)",2.34 µM
same,GI50,[24],3.63 µM
same,GI50,[37],38.9 µM
same,GI50,[25],12.9 µM
same,GI50,[38],0.457 µM
same,GI50,[26]; [49],10.5 µM
same,GI50,"[5]; CAKI-1, read-out: Log10 GI50 (converted)",0.224 µM
same,GI50,[6],0.813 µM
same,GI50,[7],0.234 µM
same,GI50,[8],0.933 µM
same,GI50,[31],57.5 µM
O=Cc1ccc(-c2ccc(-c3cccs3)s2)s1 [drawing 32],GI50,[39],79.4 µM
same,GI50,[33],69.2 µM
same,GI50,[34],32.4 µM
same,GI50,[40],55 µM
same,GI50,[9],32.4 µM
same,GI50,[10],53.7 µM
same,GI50,[11],0.537 µM
same,GI50,[12]; [49],17.8 µM
same,GI50,[2],0.0603 µM
same,GI50,[41],87.1 µM
same,GI50,[13],24.5 µM
same,GI50,[15],0.0631 µM
same,GI50,[42],63.1 µM
same,GI50,[16],24 µM
same,GI50,[17],42.7 µM
same,GI50,[19],7.94 µM
same,GI50,[43],55 µM
same,GI50,[35],43.7 µM
same,GI50,[3],< 0.01 µM
same,GI50,[36],31.6 µM
same,GI50,[44],30.9 µM
same,GI50,"[20]; Homo sapiens, A498, read-out: Log10 GI50 (converted)",0.0437 µM
same,GI50,[21],0.49 µM
same,GI50,[45],47.9 µM
same,GI50,[4],0.0245 µM
same,GI50,[22],13.8 µM
same,GI50,"[23]; OVCAR-3, ovarian cancer, read-out: Log10 GI50 (converted)",0.0302 µM
same,GI50,[24],5.37 µM
same,GI50,[37],41.7 µM
same,GI50,[25],0.138 µM
same,GI50,[46],89.1 µM
same,GI50,[29]; [49],30.9 µM
same,GI50,[47],51.3 µM
same,GI50,[30]; [49],87.1 µM
same,GI50,[5]; [48],0.0138 µM
same,GI50,[7],0.525 µM
same,GI50,[8],0.0468 µM
same,GI50,[31],16.6 µM
same,GI50,[32]; [49],0.01 µM
